In ChEMBL document CHEMBL1149983, “Probing the S-1 subsite selectivity of an industrial alkaline protease in anhydrous t-butanol” (Bioorg Med Chem Lett, 1993):
Peptide text beside a SMILES is read from it. * marks the point of attachment. Cbz = O=C(OCc1ccccc1)*

test: Reaction time taken for industrial alkaline protease catalyzed synthesis using CBz-Phe-OCP as acyl donor and Gly-NH2 as nucleophile

Row | Structure (SMILES) | Reaction time [h]
1 | NC(=O)[C@H](Cc1ccccc1)NC(=O)CNC(=O)[C@H](Cc1ccccc1)NC(=O)OCc1ccccc1 (Cbz-Phe-Gly-Phe-NH2) | 1
2 | CC(C)C[C@H](NC(=O)[C@H](Cc1ccccc1)NC(=O)OCc1ccccc1)C(N)=O | 1
3 | NC(=O)CNC(=O)[C@H](Cc1ccccc1)NC(=O)OCc1ccccc1 (Cbz-Phe-Gly-NH2) | 1
4 | CC(C)C[C@H](NC(=O)CNC(=O)[C@H](Cc1ccccc1)NC(=O)OCc1ccccc1)C(N)=O (Cbz-Phe-Gly-Leu-NH2) | 1
5 | NC(=O)[C@H](Cc1ccccc1)NC(=O)[C@H](Cc1ccccc1)NC(=O)OCc1ccccc1 | 1
6 | NC(=O)CNC(=O)CNC(=O)[C@H](Cc1ccccc1)NC(=O)OCc1ccccc1 (Cbz-Phe-Gly-Gly-NH2) | 1.5
7 | CCCOC(=O)[C@@H](C)NC(=O)[C@H](CC(=O)OCc1ccccc1)NC(=O)OCc1ccccc1 | 2
8 | CC(C)C[C@@H](NC(=O)[C@H](Cc1ccccc1)NC(=O)OCc1ccccc1)C(N)=O | 1.5
9 | NC(=O)[C@@H](Cc1ccccc1)NC(=O)[C@H](Cc1ccccc1)NC(=O)OCc1ccccc1 | 2
